Laboratory results reported in ChEMBL document CHEMBL5634164, “Absolute Configuration of Oxabornyl Polyenes Prugosenes A1-A3 and Structural Revision of Prugosene A2” (J Nat Prod, 2024).

What was measured:
[1] = system: Respiratory syncytial virus; test: Antiviral activity against RSV A2 ATCC VR-1540 infected in HEp-2 cells assessed as inhibition of virus induced cytopathic effect measured after 72 hrs; type: functional, organism-based; details: human respiratory syncytial virus, A2 ATCC VR-1540, HEp-2, 72 h
[2] = Cytotoxicity against HEp-2 cells; type: toxicity, cell-based; details: human

SMILES | IC50 [1] [µM] | CC50 [2] [µM]
CC1=C[C@](C)(O)[C@H](C)O[C@@H]1/C(C)=C/C=C/C=C/C=C/C=C/C1(C)C2OC(=O)C1(C)C(=O)C2C (stereo partly drawn) | 6.3 | > 100
CC1=C[C@@](C)(O)[C@@H](/C(C)=C/C=C/C=C/C=C/C=C/C2(C)C3OC(=O)C2(C)C(=O)C3C)O[C@H]1C (stereo partly drawn) | 25 | > 100
CC1=C[C@@](C)(O)[C@H](/C(C)=C/C=C/C=C/C=C/C=C/C2(C)C3OC(=O)C2(C)C(=O)C3C)O[C@H]1C (stereo partly drawn) | 12 | > 100
NC(=O)c1ncn([C@@H]2O[C@H](CO)[C@@H](O)[C@H]2O)n1 [RIBAVIRIN] | 15 | > 100
